Positions of bridges follow the written chain, without caps; N, C: chain ends. Non-standard residues stand in square brackets, D forms with d. Residues, ends and D or L forms follow the SMILES beside them. 2Nal = N[C@@H](Cc1ccc2ccccc2c1)C(=O)O; Lys(iPr) = CC(C)NCCCC[C@H](N)C(=O)O
Legend:
[1] = test system: WBC count; conditions: ref [43], cited from earlier work
[2] = test system: hepatic carcinoma models; conditions: ref [30]; cited from earlier work
Text: (§1) Due to the critical role of SDF-1/CXCR4 interaction in immune cell retention and mobilization, CXCR4 inhibition may lead to T-cell infiltration and redistribution in tumor microenvironments.

[3] = test system: pancreatic cancer; conditions: mice with pancreatic cancer; ref [7]; cited from earlier work
Text: as §1

[4] = test system: ovarian cancer models; conditions: ref [32]; cited from earlier work
Text: as §1

[5] = test system: leukocytes and HSCs; conditions: ref [12], [20], [24]; cited from earlier work
Text: In addition to tumor microenvironments, SDF-1 is constitutively expressed at high levels in bone marrow and is an efficient chemotactic factor for immune cells including T-cells, B-cells, and monocytes. […] There are two major mechanisms involved in this function: down-regulation of cell surface CXCR4 by internalization or proteolysis, and antagonism via direct blockade of SDF-1/CXCR4 interaction.

[6] = ref [43]; cited from earlier work
[7] = biological target: T1, mouse CXCR4 (Mus musculus, UniProt P70658); assay: SDF-1/CXCR4 binding assay, mouse lymphoma 2PK-3 cells
T1 construct: mouse lymphoma 2PK-3 cells that express endogenous mouse CXCR4; endogenous in cells; host or cells: 2PK-3 mouse lymphoma cells
T1 sequence (P70658 whole entry): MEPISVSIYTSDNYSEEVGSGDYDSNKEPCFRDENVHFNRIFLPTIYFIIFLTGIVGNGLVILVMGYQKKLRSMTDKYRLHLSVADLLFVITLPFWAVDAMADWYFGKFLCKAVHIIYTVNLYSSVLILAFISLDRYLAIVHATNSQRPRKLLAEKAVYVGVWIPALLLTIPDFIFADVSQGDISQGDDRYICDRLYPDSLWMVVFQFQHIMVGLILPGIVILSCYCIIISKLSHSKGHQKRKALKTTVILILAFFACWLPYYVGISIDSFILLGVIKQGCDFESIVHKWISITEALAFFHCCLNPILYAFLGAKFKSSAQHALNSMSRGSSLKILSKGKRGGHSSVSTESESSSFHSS
Experimental: (§2) Preclinical characterization of both agents was previously described. Interaction of SDF-1/CXCR4 was assayed in human leukemia CCRF-CEM cells expressing high levels of human CXCR4, MDA-MB-435 cells stably transfected with monkey CXCR4, and mouse 2PK-3 lymphoma cells expressing high levels of mouse CXCR4.
(§3) Figure 1 LY2510924 peptide and LY2624587 antibody inhibition of SDF-1/CXCR4 binding in human, monkey, and mouse cells LY2510924 (peptide antagonist) inhibits binding in (A) human, (B) monkey, and (C) mouse cells. LY2624587 (CXCR4 mAb) inhibits binding in (D) human, (E) monkey, and (F) mouse cells. Human cells = leukemia CCRF-CEM cells with high-level expression of human CXCR4, monkey cells = MDA-MB-435 cells stably transfected with monkey CXCR4, and mouse cells = 2PK-3 lymphoma cells with high-level expression of mouse CXCR4. Ki = inhibitor constant.
(§4) The SDF-1/CXCR4 binding assay used human leukemia CCRF-CEM cells that express endogenous CXCR4 and [125I]-labeled recombinant human SDF-1α (PeproTech EC Ltd., London, UK) as previously described. The same assay was conducted for breast cancer MDA-MB-435 cells transfected with monkey CXCR4 and mouse lymphoma 2PK-3 cells that express endogenous mouse CXCR4. Plates were counted in a 1450 Microbeta Liquid Scintillation and Luminescence Counter (Wallac) in SPA mode.

[8] = biological target: T2, human CXCR4 (Homo sapiens, UniProt P61073); assay: SDF-1/CXCR4 binding assay, [125I]-SDF-1α, human leukemia CCRF-CEM cells
T2 construct: human leukemia CCRF-CEM cells that express endogenous CXCR4; endogenous in cells; host or cells: CCRF-CEM human leukemia cells
T2 sequence (P61073 whole entry): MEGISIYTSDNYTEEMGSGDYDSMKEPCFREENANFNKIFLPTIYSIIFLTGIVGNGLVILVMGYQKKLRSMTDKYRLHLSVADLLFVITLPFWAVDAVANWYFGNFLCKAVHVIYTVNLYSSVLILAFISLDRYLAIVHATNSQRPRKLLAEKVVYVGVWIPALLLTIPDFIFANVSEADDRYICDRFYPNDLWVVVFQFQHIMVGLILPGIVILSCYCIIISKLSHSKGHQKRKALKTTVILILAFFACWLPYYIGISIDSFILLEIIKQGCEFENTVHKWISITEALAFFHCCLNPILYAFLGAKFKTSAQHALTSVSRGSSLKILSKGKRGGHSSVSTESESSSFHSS
Experimental: as §2, §3, §4

[9] = biological target: T3, monkey CXCR4 (Macaca fascicularis, UniProt Q28474); assay: SDF-1/CXCR4 binding assay, MDA-MB-435 cells transfected with monkey CXCR4; conditions: MDA-MB-435 cells stably transfected with monkey CXCR4; SPA mode; read-out: IC50, inhibition of SDF-1 binding
T3 construct: expressed in transfected cells; host or cells: MDA-MB-435 cells
T3 sequence (Q28474 whole entry): as the sequence (P61073 whole entry) above, with M24I, N35H, K38R, R146K, N176S counted along it
Experimental: as §2, §3, §4

[10] = 1- to 30-mg/day, patients with advanced cancer; ref [9]; cited from earlier work
Text: We developed LY2624587, a fully humanized CXCR4 mAb that is among the first-in-class anti-CXCR4 mAbs developed, for the treatment of patients with cancer. […] A role for LY2624587 antibody in mobilizing HSCs and WBCs has not been previously reported. We also developed LY25 ...

[11] = test system: patients with multiple myeloma, peripheral leukocytes; conditions: ref [41]; cited from earlier work
Text: (§5) These distinct in vitro properties may be related to the differential mobilization of WBCs and HSCs in vivo, but the mechanism is not yet understood and these differences cannot fully explain why LY2624587 antibody induced only minimal changes in WBCs and HSCs in monkeys and humans. […] Weak immune cell mobilization by LY2624587 antibody may be a class phenomenon of mAb agents. Ano ...

[12] = test system: hematologic malignancies; conditions: ref [11], [39]; cited from earlier work
Text: as §5

[13] = test system: patients with chronic lymphocytic leukemia, normal lymphocytes; conditions: ref [40]; cited from earlier work
Text: as §5

c1cc(CN2CCCNCCNCCCNCC2)ccc1CN1CCCNCCNCCCNCC1 [AMD3100]
duration of single dose effect [1]: appeared to last only a few hours | WBC count at 24 hours ([1]; single dose, 24 hours): reduced to near baseline level at 24 hours | combination with anti–PD-1 [2]: augmented anti–PD-1 combination therapy efficacy | T-cell accumulation near tumors [3]: rapid T-cell accumulation near tumors | combination with anti–PD-L1 mAb, tumor cell elimination [3]: synergistic with an anti–PD-L1 mAb to eliminate tumor cells | effect on intra-tumor regulatory T-cells [4]: selective reduction of intra-tumor regulatory T-cells | effect on tumor apoptosis [4]: increased tumor apoptosis | mobilization of WBCs including neutrophils and HSCs [5]: mobilize both white blood cells (WBCs) including neutrophils and HSCs | safety on chronic dosing schedule [6]: poses significant safety concerns due to compound-associated toxicity

CC(C)NCCCC[C@H](NC(=O)[C@H]1CCC(=O)N[C@@H](Cc2ccccc2)C(=O)N[C@@H](Cc2ccc(O)cc2)C(=O)N[C@@H](CCCCNC(C)C)C(=O)N[C@H](CCCNC(=N)N)C(=O)N[C@@H](Cc2ccc3ccccc3c2)C(=O)NCC(=O)N1)C(N)=O [LY2510924] (FY[Lys(iPr)][dR][2Nal]G[dE][Lys(iPr)]-NH2; lactam N-7)
IC50 difference, mouse versus human cells ([7]; mouse 2PK-3 vs human CCRF-CEM): 35 fold | IC50 difference, mouse versus monkey cells ([7]; mouse 2PK-3 vs monkey CXCR4 MDA-MB-435): 29 fold | IC50 ([7]; mouse lymphoma 2PK-3 cells, SPA mode, read-out: IC50, inhibition of SDF-1 binding): 2.83 nM | Ki [8]: 0.0495 nM | IC50 ([8]; human leukemia CCRF-CEM cells, [125I]-labeled human SDF-1α, SPA mode, read-out: IC50, inhibition of SDF-1 binding): 0.0797 nM | IC50 [9]: 0.097 nM | pharmacokinetic and safety profiles [10]: favorable pharmacokinetic and safety profiles

BMS-936564/MDX-1338: CXCR4-specific mAb in clinical development
duration of leukocyte increase [11]: transient | increase in peripheral leukocytes (median) [11]: 2 fold | antitumor and pro-apoptotic functionality [12]: antitumor and pro-apoptotic functionality | increase in absolute number of normal lymphocytes [13]: no evidence of increase
